Measurements: ChEMBL document CHEMBL2429827, “Pharmacological evaluation of some novel synthesized compounds derived from spiro(cyclohexane-1,2-thiazolidines)” (2013)
Values after ≈ are worked out from the molar mass of the structure shown. Active and inactive are the calls of the source. The calls are words filed in the database; no cut-off is given here.

Assays:
[1] = test system: Staphylococcus aureus; assay: Bacteriostatic activity against Staphylococcus aureus NRRL B-313 after 24 hrs by two-fold serial dilution technique; type: functional; conditions: NRRL B-313, 24 h
[2] = test system: Bacillus subtilis; assay: Bacteriostatic activity against Bacillus subtilis NRRL B-543 after 24 hrs by two-fold serial dilution technique; type: functional; conditions: NRRL B-543, 24 h
[3] = test system: Aspergillus niger; assay: Antifungal activity against Aspergillus niger after 48 hrs by two-fold serial dilution technique; type: functional
[4] = test system: Candida albicans; assay: Antifungal activity against Candida albicans NRRL Y-477 after 48 hrs by two-fold serial dilution technique; type: functional; conditions: NRRL Y-477, 48 h
[5] = test system: Escherichia coli; assay: Antibacterial activity against Escherichia coli NRRL B-210 after 24 hrs by agar diffusion method; type: functional, organism-based
[6] = test system: Aspergillus niger; assay: Antifungal activity against Aspergillus niger after 24 hrs by agar diffusion method; type: functional, organism-based
[7] = test system: Staphylococcus aureus; assay: Antibacterial activity against Staphylococcus aureus NRRL B-313 after 24 hrs by agar diffusion method; type: functional, organism-based
[8] = test system: Bacillus subtilis; assay: Antibacterial activity against Bacillus subtilis NRRL B-543 after 24 hrs by agar diffusion method; type: functional, organism-based
[9] = test system: Candida albicans; assay: Antifungal activity against Candida albicans NRRL Y-477 after 24 hrs by agar diffusion method; type: functional, organism-based
[10] = test system: Escherichia coli; assay: Bacteriostatic activity against Escherichia coli NRRL B-210 after 24 hrs by two-fold serial dilution technique; type: functional; conditions: NRRL B-210, 24 h
[11] = test system: Radical scavenging activity; assay: Antioxidant activity assessed as DPPH radical scavenging activity at 100 ug/ml after 30 mins by spectroscopic analysis; type: functional
[12] = test system: Radical scavenging activity; assay: Antioxidant activity assessed as DPPH radical scavenging activity at 50 ug/ml after 30 mins by spectroscopic analysis; type: functional
[13] = test system: HepG2; assay: Cytotoxicity against human HepG2 cells at 100 ug/ml after 72 hrs by SRB assay; type: functional
[14] = test system: MCF7; assay: Cytotoxicity against human MCF7 cells at 100 ug/ml after 72 hrs by SRB assay; type: functional

| Structure (SMILES) | MIC [1] [µg/mL] | MIC [2] [µg/mL] | MIC [3] [µg/mL] | MIC [4] [µg/mL] | Activity [5] | Activity [6] | Activity [7] | Activity [8] | Activity [9] | MIC [10] [µg/mL] | Activity [11] [%] | Activity [12] [%] | Activity [13] [%] | Activity [14] [%] |
| --- | --- | --- | --- | --- | --- | --- | --- | --- | --- | --- | --- | --- | --- | --- |
| Cc1ccc(-c2c3c(oc(=O)c2C#N)N(c2ccc(F)cc2)C2(CCCCC2)S3)cc1 | 0.125 (≈ 0.289 µM) | 0.12 (≈ 0.277 µM) | 0.3 (≈ 0.694 µM) | 0.2 (≈ 0.462 µM) | inactive | Active | Active | Active | Active |  |  |  |  |  |
| Fc1ccc(N2/C(=N/Nc3ccccc3)CSC23CCCCC3)cc1 |  |  |  |  | inactive | inactive | Active | inactive | Active |  |  |  |  |  |
| O=C1/C(=C\c2ccc(Cl)cc2)SC2(CCCCC2)N1c1ccc(Br)cc1 |  |  |  |  | inactive | inactive | inactive | Active | Active |  |  |  |  |  |
| O=C1CSC2(CCCCC2)N1c1ccc(Br)cc1 | 0.3 (≈ 0.92 µM) | 0.2 (≈ 0.613 µM) |  | 0.2 (≈ 0.613 µM) | Active | Active | Active | Active | Active | 0.2 (≈ 0.613 µM) |  |  |  |  |
| Cc1ccc(/C=C2/SC3(CCCCC3)N(c3ccc(F)cc3)C2=O)cc1 |  |  |  |  |  |  |  |  |  |  | 66.8 | 41.1 | 50.32 | 61.2 |
| O=C1CSC2(CCCCC2)N1c1ccc(F)cc1 | 0.15 (≈ 0.565 µM) | 0.125 (≈ 0.471 µM) | 0.125 (≈ 0.471 µM) | 0.125 (≈ 0.471 µM) | Active | Active | Active | Active | Active | 0.125 (≈ 0.471 µM) |  |  |  |  |
| Cc1ccc(-c2c3c(nc4[nH]c(=S)[nH]c(=S)c24)N(c2ccc(F)cc2)C2(CCCCC2)S3)cc1 |  |  |  |  |  |  |  |  |  |  | 84.6 | 60 | 50.21 | 64.2 |
| O=C1/C(=C\c2ccc(Cl)cc2)SC2(CCCCC2)N1c1ccc(F)cc1 |  |  |  |  | Active | inactive | inactive | inactive | Active |  |  |  |  |  |
| Cc1ccc(C2NOC3=C2SC2(CCCCC2)N3c2ccc(F)cc2)cc1 (centres undefined) |  |  |  |  | inactive | inactive | inactive | inactive | Active |  | 60.5 | 41 | 45.6 | 56.62 |
| Cc1ccc(-c2c(C#N)c(N)nc3c2SC2(CCCCC2)N3c2ccc(F)cc2)cc1 |  |  |  |  | inactive | inactive | Active | inactive | Active |  | 85 | 54.6 | 45 | 55.84 |
| N/N=C1\CSC2(CCCCC2)N1c1ccc(F)cc1 | 0.4 (≈ 1.43 µM) | 0.4 (≈ 1.43 µM) | 0.45 (≈ 1.61 µM) | 0.435 (≈ 1.56 µM) | inactive | Active | Active | Active | Active |  |  |  |  |  |
| O=C1/C(=N\Nc2ccc([N+](=O)[O-])cc2)SC2(CCCCC2)N1c1ccc(F)cc1 | 0.175 (≈ 0.422 µM) | 0.175 (≈ 0.422 µM) | 0.3 (≈ 0.724 µM) | 0.45 (≈ 1.09 µM) | inactive | inactive | Active | Active | Active |  |  |  |  |  |
| Cc1ccc(-c2c3c(nc4[nH]c(=S)nc(NN)c24)N(c2ccc(F)cc2)C2(CCCCC2)S3)cc1 |  |  |  |  |  |  |  |  |  |  | 78.2 | 50.2 | 15.65 | 45.62 |
| NS(=O)(=O)c1ccc(/N=C2\CSC3(CCCCC3)N2c2ccc(F)cc2)cc1 |  |  |  |  | inactive | inactive | Active | Active | Active |  |  |  |  |  |
| CC(=O)Nc1nc2c(c(-c3ccc(C)cc3)c1C#N)SC1(CCCCC1)N2c1ccc(F)cc1 |  |  |  |  |  |  |  |  |  |  | 79.8 | 49.9 | 50.63 | 65 |
| Cc1ccc(-c2c3c(nc4nc(C)[nH]c(=O)c24)N(c2ccc(F)cc2)C2(CCCCC2)S3)cc1 |  |  |  |  |  |  |  |  |  |  | 92.5 | 65 | 78.85 | 84 |
